Key:
hSERT [1] = molecular target: T1, hSERT (Homo sapiens, UniProt P31645); test: hSERT membrane radioligand binding assay (3H-citalopram), Assay 1; conditions: SERT pKi, hSERT HEK-293 membranes, 1.0 nM 3H-citalopram; values given as lower bounds
hNET [2] = molecular target: T2, hNET (Homo sapiens, UniProt P23975); test: hNET neurotransmitter uptake assay (3H-NE), Assay 2; format: cell-based; parameters: expressed in transfected cells; host or cells: HEK-293; conditions: norepinephrine reuptake inhibition, 3H-NE uptake, HEK-293 hNET cells (values without asterisk); read-out: NET pIC50 (converted)
T2 sequence (P23975 whole entry): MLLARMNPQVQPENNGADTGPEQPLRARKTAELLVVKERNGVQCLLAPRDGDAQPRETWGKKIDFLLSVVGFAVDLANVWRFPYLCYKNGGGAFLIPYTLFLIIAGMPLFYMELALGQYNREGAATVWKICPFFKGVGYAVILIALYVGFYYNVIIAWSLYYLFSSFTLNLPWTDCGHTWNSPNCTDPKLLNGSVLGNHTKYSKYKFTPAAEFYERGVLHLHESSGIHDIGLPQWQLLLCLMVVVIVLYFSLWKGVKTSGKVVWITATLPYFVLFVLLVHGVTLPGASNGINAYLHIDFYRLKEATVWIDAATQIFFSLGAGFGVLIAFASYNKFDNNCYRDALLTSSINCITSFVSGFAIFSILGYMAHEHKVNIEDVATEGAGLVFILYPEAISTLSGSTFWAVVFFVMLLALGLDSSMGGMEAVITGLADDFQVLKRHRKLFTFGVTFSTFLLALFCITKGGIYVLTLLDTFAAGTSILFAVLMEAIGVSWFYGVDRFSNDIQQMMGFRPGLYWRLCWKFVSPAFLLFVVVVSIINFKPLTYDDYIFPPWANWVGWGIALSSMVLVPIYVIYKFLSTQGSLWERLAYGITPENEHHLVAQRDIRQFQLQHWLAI

hNET [3] = molecular target: T2, hNET; test: hNET membrane radioligand binding assay (3H-nisoxetine), Assay 1
Description: Membrane radioligand binding assays were used to measure inhibition of labeled ligand (^3H-citalopram or ^3H-nisoxetine or ^3H-WIN35428) binding to membranes prepared from cells expressing the respective human recombinant transporter (hSERT or hNET or hDAT) in order to determine the pKi values of test compounds at the transporters.
Recombinant human embryonic kidney (HEK-293) derived cell lines stably transfected with hSERT or hNET, respectively, were grown in DMEM medium supplemented with 10% dialyzed FBS (for hSERT) or FBS (for hNET), 100 μg/mL penicillin, 100 μg/mL streptomycin, 2 mM L-glutamine and 250 μg/mL of the aminoglycoside antibiotic G418, in a 5% CO2 humidified incubator at 37° C. When cultures reached 80% confluence, the cells were washed thoroughly in PBS (without Ca^2+ and Mg^2+) and lifted with 5 mM EDTA in PBS. Cells were pelleted by centrifugation, resuspended in lysis buffer (10 mM Tris-HCl, pH7.5 containing 1 mM EDTA), homogenized, pelleted by centrifugation, then resuspended in 50 mM Tris-HCl, pH 7.5 and 10% sucrose at 4° C. Protein concentration of the membrane suspension was determined using a Bio-Rad Bradford Protein Assay kit. Membranes were snap frozen and stored at −80° C.
Binding assays were performed in a 96-well assay plate in a total volume of 200 μl assay buffer (50 mM Tris-HCl, 120 mM NaCl, 5 mM KCl, pH 7.4) with 0.5, 1, and 3 μg membrane protein, for SERT, NET and DAT, respectively.
Stock solutions (10 mM in DMSO) of test compound were prepared and serial dilutions made using Dilution Buffer (50 mM Tris-HCl, 120 mM NaCl, 5 mM KCl, pH 7.4, 0.1% BSA, 400 μM ascorbic acid).
Following a 60 minute incubation at 22° C. (or a period sufficient to reach equilibrium), the membranes were harvested by rapid filtration over a 96-well UniFilter GF/B plate, pretreated with 0.3% polyethyleneimine, and washed 6 times with 300 μl wash buffer (50 mM Tris-HCl, 0.9% NaCl, pH 7.5 at 4° C.). Plates were dried overnight at room temperature, approximately 45 μl of MicroScint™-20 (Perkin Elmer) added and bound radioactivity quantitated via liquid scintillation spectroscopy. Inhibition curves and saturation isotherms were analyzed using GraphPad Prism Software package (GraphPad Software, Inc., San Diego, Calif.). IC50 values were generated from concentration response curves using the Sigmoidal Dose Response (variable slope) algorithm in Prism GraphPad.

hSERT [4] = molecular target: T1, hSERT; test: hSERT neurotransmitter uptake assay (3H-5-HT), Assay 2; format: cell-based; parameters: expressed in transfected cells; host or cells: HEK-293; conditions: serotonin reuptake inhibition, 3H-5-HT uptake, HEK-293 hSERT cells (values without asterisk); read-out: SERT pIC50 (converted)
hSERT [5] = molecular target: T1, hSERT; test: fluorescence-based serotonin reuptake inhibition assay (Tsuruda et al. 2010; data indicated by an asterisk); format: cell-based; parameters: expressed in transfected cells; host or cells: HEK-293; conditions: fluorescence-based assay (values with asterisk), read-out: SERT pIC50 (converted)

T1 sequence (P31645 whole entry): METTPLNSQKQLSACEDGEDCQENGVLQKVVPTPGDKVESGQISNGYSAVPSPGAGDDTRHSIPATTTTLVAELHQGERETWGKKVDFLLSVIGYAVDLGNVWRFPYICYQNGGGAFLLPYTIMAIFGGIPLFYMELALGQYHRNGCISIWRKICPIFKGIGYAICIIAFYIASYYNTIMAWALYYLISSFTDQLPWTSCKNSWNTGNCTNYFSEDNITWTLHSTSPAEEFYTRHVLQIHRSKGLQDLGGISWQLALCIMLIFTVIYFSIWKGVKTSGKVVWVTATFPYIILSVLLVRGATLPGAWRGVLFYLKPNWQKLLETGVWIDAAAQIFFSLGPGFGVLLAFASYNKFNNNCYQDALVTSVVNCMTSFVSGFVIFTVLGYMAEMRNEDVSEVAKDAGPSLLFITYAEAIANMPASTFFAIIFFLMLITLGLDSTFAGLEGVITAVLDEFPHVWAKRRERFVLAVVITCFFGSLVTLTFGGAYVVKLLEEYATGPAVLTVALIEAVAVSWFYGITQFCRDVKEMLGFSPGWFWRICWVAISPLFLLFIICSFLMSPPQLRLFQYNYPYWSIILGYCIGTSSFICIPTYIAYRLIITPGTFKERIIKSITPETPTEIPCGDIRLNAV

Structure (SMILES)	Ki (hSERT [1]) [nM]	IC50 (hNET [2]) [nM]	Ki (hNET [3]) [nM]	IC50 (hSERT [4]) [nM]	IC50 (hSERT [5]) [nM]
Cc1ccc(O[C@@H](C2CC2)[C@H]2CCNC2)c(C)c1 [Example 16-28, (S)-3-[(S)cyclopropyl-(2,4-dimethylphenoxy)-methyl]pyrrolidine]	≤ 10	≤ 10	≤ 10	≤ 10	
Cc1cc(Cl)ccc1O[C@@H](C1CC1)[C@H]1CCNC1 [Example 16-29, (S)-3-[(S)-(4-Chloro-2-methylphenoxy)cyclopropylmethyl]pyrrolidine]	≤ 10	≤ 10	≤ 10	≤ 10	
CCc1cc(F)ccc1O[C@H](C1CC1)[C@H]1CCNC1 [Example 16-33, (S)-3-[(R)cyclopropyl-(2-ethyl-4-fluorophenoxy)-methyl]pyrrolidine]	≤ 100	≤ 10	≤ 10	≤ 100	
CCc1cc(F)ccc1O[C@@H](C1CC1)[C@H]1CCNC1 [Example 16-34, (S)-3-[(S)cyclopropyl-(2-ethyl-4-fluorophenoxy)-methyl]pyrrolidine]	≤ 10	≤ 10	≤ 10	≤ 10	
COc1cc(Cl)ccc1O[C@@H](C1CC1)[C@H]1CCNC1 [Example 16-37, (S)-3-[(S)-(4-Chloro-2-methoxyphenoxy)cyclopropylmethyl]pyrrolidine]	≤ 10	≤ 10	≤ 10	≤ 10	
COc1cc(Cl)ccc1O[C@H](C1CC1)[C@H]1CCNC1 [Example 16-38, (S)-3-[(R)-(4-Chloro-2-methoxyphenoxy)cyclopropylmethyl]pyrrolidine]	≤ 10	≤ 100	≤ 10	≤ 10	
Clc1cccc(Cl)c1O[C@@H](C1CC1)[C@H]1CCNC1 [Example 16-44, (S)-3-[(S)cyclopropyl-(2,6-dichlorophenoxy)-methyl]pyrrolidine]	≤ 100	≤ 10	≤ 10	≤ 316	
Cc1ccc(O[C@H](C2CC2)[C@H]2CCNC2)c(F)c1F [Example 16-51, (S)-3-[(R)cyclopropyl-(2,3-difluoro-4-methylphenoxy)methyl]pyrrolidine]	≤ 10	≤ 10	≤ 10	≤ 10	
COc1c(O[C@@H](C2CC2)[C@H]2CCNC2)ccc(Cl)c1Cl [Example 16-55, (S)-3-[(S)cyclopropyl-(3,4-dichloro-2-methoxyphenoxy)methyl]pyrrolidine]	≤ 10	≤ 10	≤ 10	≤ 10	
Clc1ccc(Cl)c(O[C@@H](C2CC2)[C@H]2CCNC2)c1Cl [Example 16-58, (S)-3-[(S)cyclopropyl-(2,3,6-trichlorophenoxy)methyl]pyrrolidine]	≤ 10	≤ 10	≤ 10	≤ 100	
Fc1ccc(F)c(O[C@@H](C2CC2)[C@H]2CCNC2)c1Cl [Example 16-61, (S)-3-[(S)-(2-Chloro-3,6-difluorophenoxy)cyclopropylmethyl]pyrrolidine]	≤ 10	≤ 10	≤ 10	≤ 100	
COc1ccc(F)c(O[C@H](C2CC2)[C@H]2CCNC2)c1Cl [Example 16-65, (S)-3-[(R)-(2-Chloro-6-fluoro-3-methoxyphenoxy)cyclopropylmethyl]pyrrolidine]	≤ 10	≤ 10	≤ 10	≤ 10	
Cc1cc(O[C@H](C2CC2)[C@H]2CCNC2)c(Cl)cc1Cl [Example 16-73, (S)-3-[(R)cyclopropyl-(2,4-dichloro-5-methylphenoxy)methyl]pyrrolidine]	≤ 10		≤ 3160		≤ 100
Fc1cc(Cl)cc(Cl)c1O[C@H](C1CC1)[C@H]1CCNC1 [Example 16-76, (S)-3-[(R)cyclopropyl-(2,4-dichloro-6-fluorophenoxy)methyl]pyrrolidine]	≤ 10	≤ 10	≤ 10	≤ 10	
Cc1cc(Cl)cc(Cl)c1O[C@@H](C1CC1)[C@H]1CCNC1 [Example 16-77, (S)-3-[(S)cyclopropyl-(2,4-dichloro-6-methylphenoxy)methyl]pyrrolidine]	≤ 10	≤ 100	≤ 10	≤ 10	
Fc1cc(Cl)cc(F)c1O[C@@H](C1CC1)[C@H]1CCNC1 [Example 16-79, (S)-3-[(S)-(4-Chloro-2,6-difluorophenoxy)cyclopropylmethyl]pyrrolidine]	≤ 10	≤ 10	≤ 10	≤ 10	

Structure (SMILES)	Ki (hSERT [1]) [nM]	IC50 (hNET [2]) [nM]	Ki (hNET [3]) [nM]	IC50 (hSERT [4]) [nM]	IC50 (hSERT [5]) [nM]
CCc1cc(F)cc(F)c1O[C@@H](C1CC1)[C@H]1CCNC1 [Example 16-81, (S)-3-[(S)cyclopropyl-(2-ethyl-4,6-difluorophenoxy)-methyl]pyrrolidine]	≤ 10	≤ 10	≤ 10	≤ 100	
CSc1cccc(O[C@@H](C2CC2)[C@H]2CCNC2)c1 [Example 16-86, (S)-3-[(S)cyclopropyl-(3-methylsulfanylphenoxy)methyl]pyrrolidine]	≤ 10	≤ 10	≤ 10	≤ 100	
Fc1ccc(O[C@@H](C2CC2)[C@H]2CCNC2)cc1Cl [Example 16-89, (S)-3-[(S)-(3-Chloro-4-fluorophenoxy)cyclopropylmethyl]pyrrolidine]	≤ 10	≤ 100	≤ 10	≤ 100	
Fc1cc(O[C@H](C2CC2)[C@H]2CCNC2)ccc1Cl [Example 16-91, (S)-3-[(R)-(4-Chloro-3-fluorophenoxy)cyclopropylmethyl]pyrrolidine]	≤ 10	≤ 10	≤ 10	≤ 10	
Fc1cc(O[C@@H](C2CC2)[C@H]2CCNC2)ccc1Cl [Example 16-93, (S)-3-[(S)-(4-Chloro-3-fluorophenoxy)cyclopropylmethyl]pyrrolidine]	≤ 10	≤ 10	≤ 10	≤ 10	
Clc1cc(Cl)cc(O[C@@H](C2CC2)[C@H]2CCNC2)c1 [Example 16-96, (S)-3-[(S)cyclopropyl-(3,5-dichlorophenoxy)methyl]pyrrolidine]	≤ 10	≤ 10	≤ 10	≤ 10	
Clc1cc(Cl)cc(O[C@H](C2CC2)[C@H]2CCNC2)c1 [Example 16-97, (S)-3-[(R)cyclopropyl-(3,5-dichlorophenoxy)methyl]pyrrolidine]	≤ 10	≤ 10	≤ 10	≤ 10	
Fc1cc(Cl)cc(O[C@@H](C2CC2)[C@H]2CCNC2)c1 [Example 16-98, (S)-3-[(S)-(3-Chloro-5-fluorophenoxy)cyclopropylmethyl]pyrrolidine]	≤ 10	≤ 10	≤ 10	≤ 100	
Fc1cc(Cl)cc(O[C@H](C2CC2)[C@H]2CCNC2)c1 [Example 16-99, (S)-3-[(R)-(3-Chloro-5-fluorophenoxy)cyclopropylmethyl]pyrrolidine]	≤ 10	≤ 10	≤ 10	≤ 100	
Clc1ccc(O[C@@H](C2CC2)[C@H]2CCNC2)cc1 [Example 16-103, (S)-3-[(S)-(4-Chlorophenoxy)cyclopropylmethyl]pyrrolidine]	≤ 10	≤ 10	≤ 10	≤ 10	
Clc1cccc(Cl)c1O[C@@H](C1CCCCC1)[C@H]1CCNC1 [Example 19, (S)-3-[(S)-Cyclohexyl-(2,6-dichlorophenoxy)methyl]pyrrolidine]	≤ 10	≤ 10	≤ 10	≤ 100	
Fc1cccc(O[C@H](C2CCCCC2)[C@H]2CCNC2)c1Cl [Example 20-5, (S)-3-[(R)-(2-Chloro-3-fluorophenoxy)cyclohexylmethyl]pyrrolidine]	≤ 10	≤ 10	≤ 10	≤ 10	
C=CC[C@H](Oc1cccc(Cl)c1C)[C@H]1CCNC1 [Example 24, (S)-3-[(S)-1-(3-Chloro-2-methylphenoxy)but-3-enyl]-pyrrolidine]	≤ 10	≤ 10	≤ 10	≤ 10	
C=CC[C@H](Oc1ccc(Cl)cc1)[C@H]1CCNC1 [Example 25-1, (S)-3-[(S)-1-(4-Chlorophenoxy)but-3-enyl]pyrrolidine]	≤ 10	≤ 10	≤ 10	≤ 10	
C#CC(Oc1c(Cl)ccc(Cl)c1Cl)[C@H]1CCNC1 (stereo partly drawn) [Example 26, (S)-3-[1(2,3,6-Trichlorophenoxy)prop-2-ynyl]pyrrolidine]	≤ 10	≤ 10	≤ 10	≤ 100	
C#CC(Oc1cccc(Cl)c1Cl)[C@H]1CCNC1 (stereo partly drawn) [Example 27-1, (S)-3-[1-(2,3-Dichlorophenoxy)prop-2-ynyl]pyrrolidine]	≤ 10	≤ 10	≤ 10	≤ 100	
